From PMC5603603, “Linoleic and palmitoleic acid block streptokinase-mediated plasminogen activation and reduce severity of invasive group A streptococcal infection” (Scientific Reports, 2017)

System: recombinant cluster 2a type streptokinase
Assay: Plasminogen assay using recombinant streptokinase
Format: biochemical, group A streptococcal strain A614
Conditions: 40 µg/ml
Experimental: An overnight culture of the strain A614 (in THY medium) was centrifuged at 5000 rpm for 10 min. The supernatant was discarded and the pellet was resuspended in TE-buffer (from DNeasy blood and tissue kit, Qiagen) containing 10% DNase-free RNase (10 µg/ml). The suspension was transferred to a vial filled with zirconium beads. Bacterial cells were lysed using a fastprep machine (MP Biomedical) twice for 30 sec at 4.0 m/sec. Then AL-buffer (from DNeasy blood and tissue kit, Qiagen) was added and beads were spun down for 30 sec. The lysate was transferred to a new reaction tube and proteinase K was added. The tube was inverted and incubated for 30 min at 56 °C. Then 100% ethanol was added and genomic DNA was isolated according to the protocol of the DNeasy blood and tissue kit (Qiagen). […] Using a gel electrophoresis, the 1500 bp product was detected, cut out and purified using a PCR clean-up, gel extraction kit (Machery-Nagel). […]
75 µl of the recombinant streptokinase (concentration 1 mg/ml) was added to the wells of a 96well plate followed by 69 µl PBS, 5 µl S-2251 (10 mM stock solution, chromogenic substrate for the detection of plasmin, Chromogenix) and 1 µl plasminogen (1 mg/ml stock solution, Biopur or Sigma). […] The absorption was measured at the beginning of the reaction and then every hour at 405 nm after 3 sec of shaking on a Tecan Sunrise ELISA Reader using Magellan software. […]

Row | Compound | inhibition of plasminogen activation
1 | CCCCC/C=C\C/C=C\CCCCCCCC(=O)O [LA, linoleic acid] | 60–70%
2 | CCCCCC/C=C\CCCCCCCC(=O)O [PA, palmitoleic acid] | 60–70%
